From patent US8883745B2, “C—glycolipids with enhanced Th-1 profile” (New York University, priority 2006, dated 2014)

Experiments:
Assay type in all cases: in vivo
IFN-γ [1] = test: IFN-γ levels in sera upon i.v. glycolipid administration to BALB/c mice (ELISA); parameters: IFN-γ levels, test 1 / IFN-γ levels, test 2 / IFN-γ levels, average / IFN-γ levels, Total: unit not given here; settings: BALB/c
Protocol: (§1) Five- to six-week-old female C57BL/6 mice and BALB/c mice were purchased from Taconic. Each glycolipid was stored at 1 mg/ml in 100% DMSO. Mice were injected intravenously with 1 μg of each glyocolipid diluted in 200 μL sterile phosphate buffered saline (PBS). At indicated time points, sera were collected from each animal, and concentrations of IFN-γ, IL-4, and IL-12 in the sera were evaluated by enzyme-linked immunosorbent assay (ELISA). Serum concentrations of IFN-γ, IL-4, and IL-12 were evaluated using an ELISA kit (eBioscience, San Diego, Calif.). Briefly, 96 well flat-bottom ELISA plates (NUNC) were coated with capture antibody according to the manufacture's recommendation and incubated overnight at 4° C. The plates were washed with PBS+0.05% Tween 20 (PBS-T), then incubated with manufacturer provided blocking solution for 1 hr at room temperature to block non-specific binding sites. After washing with PBS-T, sera diluted 1:10 was added to the wells and incubated for 2 hrs at room temperature. Plates were then incubated at room temperature for 1 hr with biotintylated detection antibody, washed, incubated with avidin conjugated to horse radish peroxidase (HRP) for 30 min at room temperature, washed, and finally incubated with tetramethylbenzidine substrate solution in the dark for 10 minutes at room temperature. The antibodies, avidin-HRP, and substrate solution were all diluted according to the manufacture's recommendation. Reactions were stopped with 2.0N sulfuric acid and the cytokine concentration in each well was determined by comparing the absorbance at 450 nm in each well to known standards. The levels of Th1- and Th2-type cytokines were determined in two different genetic backgrounds, i.e., in C57BL/6 mice and BALB/c mice. The following compounds were administered: A=compound (A-1 trans-conformer), B=compound (A-2), C=compound (A-3), D=compound (A-4), E=compound (A-5), Z=control (PBS alone), CRONY=α-C-GalCer, KRN=α-GalCer, GCK109 (A-1 trans-conformer), GCK151 (A-1 cis-conformer), GCK152 (A-7). The levels of cytokines were measured at 0, 2, 6, 12, 24, 48, and 72 hours after the compound administration. The levels of Th1-type cytokines IFN-γ and IL-12 are summarized in FIGS. 2A-C and 3A-C, respectively. Table 7 provides IFN-γ/IL-4 and IL-12/IL-4 ratios for various compounds, which can be used as indicators of their ability to selectively stimulate Th1-type immune responses.

IFN-γ [2] = test: IFN-γ levels in sera upon i.v. glycolipid administration to C57BL/6 mice (ELISA); parameters: IFN-γ levels, test 1 / IFN-γ levels, test 2 / IFN-γ levels, average / IFN-γ levels, Total / IFN-γ (B6): unit not given here
Protocol: as §1

IL-4 = IL-4 levels in sera upon i.v. glycolipid administration to BALB/c mice (ELISA); parameters: unit not given here
Protocol: as §1

IL-12 = IL-12 levels in sera upon i.v. glycolipid administration to C57BL/6 mice (ELISA); parameters: IL-12 levels, test 1 / IL-12 levels, test 2 / IL-12 levels, average / IL-12 levels, Total: unit not given here
Protocol: as §1

[3] = C57BL/6, ratio calculated from Tables 1-6
[4] = C57BL/6, serum, total over hours 0-72

CCCCCCCCCCCCCCCCC/C=C/CCCCCCCCC(=O)N[C@@H](CC[C@H]1O[C@H](CO)[C@H](O)[C@H](O)[C@H]1O)[C@H](O)[C@H](O)CCCCCCCCCCCCCC [A-3]
IFN-γ/IL-4 (BALB/c) (IFN-γ [1]; ratio calculated from Tables 1-6): 40
IFN-γ levels, average (IFN-γ [1]; serum, hour 0): 27
IFN-γ levels, test 1 (IFN-γ [1]; serum, hour 0): 27
IFN-γ levels, test 2 (IFN-γ [1]; serum, hour 0): 27
IFN-γ levels, average (IFN-γ [1]; serum, hour 2): 163
IFN-γ levels, test 1 (IFN-γ [1]; serum, hour 2): 137
IFN-γ levels, test 2 (IFN-γ [1]; serum, hour 2): 189
IFN-γ levels, average (IFN-γ [1]; serum, hour 6): 1172
IFN-γ levels, test 1 (IFN-γ [1]; serum, hour 6): 1072
IFN-γ levels, test 2 (IFN-γ [1]; serum, hour 6): 1272
IFN-γ levels, average (IFN-γ [1]; serum, hour 12): 3938.5
IFN-γ levels, test 1 (IFN-γ [1]; serum, hour 12): 3891
IFN-γ levels, test 2 (IFN-γ [1]; serum, hour 12): 3986
IFN-γ levels, average (IFN-γ [1]; serum, hour 24): 15700
IFN-γ levels, test 1 (IFN-γ [1]; serum, hour 24): 14100
IFN-γ levels, test 2 (IFN-γ [1]; serum, hour 24): 17300
IFN-γ levels, average (IFN-γ [1]; serum, hour 48): 224.5
IFN-γ levels, test 1 (IFN-γ [1]; serum, hour 48): 231
IFN-γ levels, test 2 (IFN-γ [1]; serum, hour 48): 218
IFN-γ levels, average (IFN-γ [1]; serum, hour 72): 61
IFN-γ levels, test 1 (IFN-γ [1]; serum, hour 72): 62
IFN-γ levels, test 2 (IFN-γ [1]; serum, hour 72): 60
IFN-γ levels, Total (IFN-γ [1]; serum, total over hours 0-72): 21287
IFN-γ/IL-4 (B6) (IFN-γ [2]; [3]): 14
IFN-γ levels, average (IFN-γ [2]; C57BL/6, serum, hour 0): 31
IFN-γ levels, test 1 (IFN-γ [2]; C57BL/6, serum, hour 0): 31
IFN-γ levels, test 2 (IFN-γ [2]; C57BL/6, serum, hour 0): 31
IFN-γ levels, average (IFN-γ [2]; C57BL/6, serum, hour 2): 213
IFN-γ levels, test 1 (IFN-γ [2]; C57BL/6, serum, hour 2): 185
IFN-γ levels, test 2 (IFN-γ [2]; C57BL/6, serum, hour 2): 241
IFN-γ levels, average (IFN-γ [2]; C57BL/6, serum, hour 6): 606
IFN-γ levels, test 1 (IFN-γ [2]; C57BL/6, serum, hour 6): 542
IFN-γ levels, test 2 (IFN-γ [2]; C57BL/6, serum, hour 6): 670
IFN-γ levels, average (IFN-γ [2]; C57BL/6, serum, hour 12): 2440.5
IFN-γ levels, test 1 (IFN-γ [2]; C57BL/6, serum, hour 12): 2665
IFN-γ levels, test 2 (IFN-γ [2]; C57BL/6, serum, hour 12): 2216
IFN-γ levels, average (IFN-γ [2]; C57BL/6, serum, hour 24): 9036
IFN-γ levels, test 1 (IFN-γ [2]; C57BL/6, serum, hour 24): 9837
IFN-γ levels, test 2 (IFN-γ [2]; C57BL/6, serum, hour 24): 8235
IFN-γ levels, average (IFN-γ [2]; C57BL/6, serum, hour 48): 344
IFN-γ levels, test 1 (IFN-γ [2]; C57BL/6, serum, hour 48): 382
IFN-γ levels, test 2 (IFN-γ [2]; C57BL/6, serum, hour 48): 306
IFN-γ levels, average (IFN-γ [2]; C57BL/6, serum, hour 72): 79.5
IFN-γ levels, test 1 (IFN-γ [2]; C57BL/6, serum, hour 72): 75
IFN-γ levels, test 2 (IFN-γ [2]; C57BL/6, serum, hour 72): 84
IFN-γ levels, Total (IFN-γ [2]; [4]): 12751
IL-4 level, average (IL-4; hour 0): 27
IL-4 level, test 1 (IL-4; hour 0): 27
IL-4 level, test 2 (IL-4; hour 0): 27
IL-4 level, average (IL-4; hour 2): 307.5
IL-4 level, test 1 (IL-4; hour 2): 273
IL-4 level, test 2 (IL-4; hour 2): 342
IL-4 level, average (IL-4; hour 6): 54.5
IL-4 level, test 1 (IL-4; hour 6): 56
IL-4 level, test 2 (IL-4; hour 6): 53
IL-4 level, average (IL-4; hour 12): 48
IL-4 level, test 1 (IL-4; hour 12): 44
IL-4 level, test 2 (IL-4; hour 12): 52
IL-4 level, average (IL-4; hour 24): 44
IL-4 level, test 1 (IL-4; hour 24): 44
IL-4 level, test 2 (IL-4; hour 24): 44
IL-4 level, average (IL-4; hour 48): 43
IL-4 level, test 1 (IL-4; hour 48): 48
IL-4 level, test 2 (IL-4; hour 48): 38
IL-4 level, average (IL-4; hour 72): 12.23
IL-4 level, test 1 (IL-4; hour 72): 12.23
IL-4 level, test 2 (IL-4; hour 72): 12.23
IL-4 level, Total (IL-4; total over hours 0-72): 538
IL-12/IL-4 (B6) (IL-12; [3]): 1.5
IL-12 levels, average (IL-12; C57BL/6, serum, hour 0): 5
IL-12 levels, test 1 (IL-12; C57BL/6, serum, hour 0): 5
IL-12 levels, test 2 (IL-12; C57BL/6, serum, hour 0): 5
IL-12 levels, average (IL-12; C57BL/6, serum, hour 2): 75
IL-12 levels, test 1 (IL-12; C57BL/6, serum, hour 2): 79
IL-12 levels, test 2 (IL-12; C57BL/6, serum, hour 2): 71
IL-12 levels, average (IL-12; C57BL/6, serum, hour 6): 442
IL-12 levels, test 1 (IL-12; C57BL/6, serum, hour 6): 451
IL-12 levels, test 2 (IL-12; C57BL/6, serum, hour 6): 433
IL-12 levels, average (IL-12; C57BL/6, serum, hour 12): 608
IL-12 levels, test 1 (IL-12; C57BL/6, serum, hour 12): 449
IL-12 levels, test 2 (IL-12; C57BL/6, serum, hour 12): 767
IL-12 levels, average (IL-12; C57BL/6, serum, hour 24): 89.5
IL-12 levels, test 1 (IL-12; C57BL/6, serum, hour 24): 77
IL-12 levels, test 2 (IL-12; C57BL/6, serum, hour 24): 102
IL-12 levels, average (IL-12; C57BL/6, serum, hour 48): 99
IL-12 levels, test 1 (IL-12; C57BL/6, serum, hour 48): 67
IL-12 levels, test 2 (IL-12; C57BL/6, serum, hour 48): 131
IL-12 levels, average (IL-12; C57BL/6, serum, hour 72): 80.5
IL-12 levels, test 1 (IL-12; C57BL/6, serum, hour 72): 53
IL-12 levels, test 2 (IL-12; C57BL/6, serum, hour 72): 108
IL-12 levels, Total (IL-12; [4]): 1400
